Consider twelve substances from patent US8759481B2, “Peptide vaccines for cancers expressing tumor-associated antigens” (Oncotherapy Science, Inc., priority 2007, dated 2014).

Entries after “also recorded” stand apart in the source; their conditions may differ. Ends that are not written are not given here.

Assay type in all cases: cell-based, human
Data set [1] relates to peptide-pulsed A24-LCL cells. Briefly: IFN-gamma ELISPOT assay (positive wells). The following applies: HLA-A24 peptides; as compared to the control. The method in brief:
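PBMC-derived DCs from HLA-A*2402 and/or A*0201 donors, pulsed with 20 micro g/ml peptide plus 3 micro g/ml beta 2-microglobulin, stimulated autologous CD8+ T cells three times (days 0, 7, 14). On day 21, responders were tested against peptide-pulsed A24-LCL or T2 cells by IFN-gamma ELISPOT. Values are reported as positive wells/wells tested; CTL lines confirmed by ELISA.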

In data set [2] the test system is peptide-pulsed A24-LCL cells. Kind of data set: CTL line establishment, IFN-gamma ELISA. The following applies: HLA-A24 peptides; vs target without peptide pulse. An outline of the steps: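 CTL lines were expanded with MMC-inactivated B-lymphoblastoid feeders, 40 ng/ml anti-CD3 and IL-2 in AIM-V/5% AS. IFN-gamma ELISPOT identified specific wells, and ELISA determined established lines, using responders stimulated by peptide-pulsed A24-LCL or T2 cells at 1×10^4/well.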
(In an ELISA, binding on a coated surface is turned into a signal by an enzyme label.)

Data set [3] relates to COS7 transfected with full length ECT2 gene and HLA-A*2402. Briefly: Specific CTL activity against transfected target cells. As to conditions: CTL clone or line raised by the peptide, vs control transfectants. As to the method: (§1) Briefly, peptide-pulsed A24-LCL or T2 cell (1×10^4/well) was prepared as stimulator cells. Cultured Cells in 48 wells or CTL clones after limiting dilution were used as responder cells. IFN-gamma ELISPOT assay and ELISA assay were performed under manufacture procedure.
(§2) The cDNA encoding an open reading frame of target genes or HLA-A02 or HLA-A24 was amplified by PCR. The PCR-amplified product was cloned into pcDNA3.1 myc-His vector (Invitrogen). The plasmids were transfected into the target cells, HLA-A02 and HLA-A24-null normal human cell line COS7 or 293T using lipofectamine (Invitrogen) according to the manufacturer's recommended procedures. Alternatively, the plasmid contained the target genes were transfected into A24-LCL by electroporation using GenePulserII (Biorad). Briefly, 2.5×10^6 A24-LCL cells were pulsed with 10 mcg prasmid at 140V and 1000 micro F. After 2 days from transfection, the transfected cells were treated with Cell dissociation solution and used as the target cells for CTL activity assay.
The established CTL line raised against these peptides were examined for their ability to recognize the target cells expressing ECT2 and HLA-A*2402. […] COS7 transfected with full length ECT2 but not HLA-A*2402 and COS7 transfected with HLA-A*2402 but not full length ECT2 (replaced other gene e.g. URLC10 or INHBB) were prepared as controls.

For data set [4], the system named is peptide-pulsed A24-LCL cells. Briefly: CTL clones by limiting dilution, specific CTL activity. As to conditions: HLA-A24 peptides; vs target without peptide pulse. An outline of the steps: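 CTLs cloned by limiting dilution at 0.3, 1 and 3 cells/well with two B-lymphoblastoid lines, 30 ng/ml anti-CD3 and 125 U/ml IL-2, IL-2 re-added at day 10; activity tested day 14. Responders stimulated by peptide-pulsed A24-LCL or T2 cells (1×10^4/well); IFN-gamma read by ELISPOT and ELISA.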

In data set [5] the test system is COS7 transfected with full length CDH3 gene and HLA-A*2402. Kind of data set: Specific CTL activity against transfected target cells. As to conditions: CTL clones raised by the peptide; vs single transfectants; listed as CDH3-A24-10-655. How it is done:
as §1, §2
The established CTL line raised against these peptides were examined for their ability to recognize the target cells expressing CDH3 and HLA-A*2402. […] COS7 transfected with full length CDH3 but not HLA-A*2402 and COS7 transfected with HLA-A*2402 but not full length CDH3 were prepared as controls.

Data set [6] concerns target cells pulsed with the peptide. Briefly: 51Cr release cytotoxicity assay. As to the method:
(§3) Cytotoxic activity was evaluated by a four-hour ^51Cr release assay. The target cells were pulsed with a 20 micro g/mL concentration of peptide overnight. The target cells were labeled with 100 micro Ci of Na2^51CrO4 at 37 degrees C. for one hour, and then washed three times with RPMI1640. The target cells (1×10^4/100 micro L) and 100 micro L of effector cells at various numbers with a total volume of 200 micro L were placed into a round-bottomed 96-well microtiter plate (Corning), and cultured at 37 degrees C. in a CO2 incubator for four hours. After culturing, 100 micro L of the supernatant was collected from each well, and measured the radioactivity using a gamma counter. Spontaneous release was the radioactivity from the target cells with medium in the absence of effector cells, and maximum release was the radioactivity from the target cells with 1 M HCl.
(§4) The Percentage of specific cytotoxicity was determined by calculating as following formula: % Specific lysis=[(experimental release−spontaneous release)/(maximum release−spontaneous release)]×100. Results Enhanced CDH3, EPHA4, ECT2, HIG2, INHBB, KIF20A, KNTC2, TTK and URLC10 Expression in Cancers

In data set [7] the test system is Caki-1 cancer cell line. Kind of data set: 51Cr release cytotoxicity assay. As to conditions: Caki-1 expressing INHBB but not HLA-A02. As to the method:
as §3, §4
(§5) Furthermore, Cytotoxic activity was examined by cytotoxicity assay according to the protocols set forth in the “Materials and Methods” section above.

The subject of data set [8] is MIAPaca2 cancer cell line. Kind of data set: 51Cr release cytotoxicity assay. How it is done:
as §3, §4
Furthermore, Cytotoxic activity was performed by cytotoxicity assay according to the protocols set forth in the “Materials and Methods” section above. […]

For data set [9], the system named is COS7 transfected with full length KIF20A gene and HLA-A*2402. Kind of data set: Specific CTL activity against transfected target cells. As to conditions: CTL line or clone raised by the peptide, vs control transfectants. As to the method:
as §1, §2
The established CTL line raised against these peptides were examined for their ability to recognize the target cells expressing KIF20A and HLA-A*2402. […]

Data set [10] relates to PK59 cancer cell line. Briefly: 51Cr release cytotoxicity assay. The following applies: PK59 expressing KIF20A but not HLA-A24. How it is done: as §3, §4, §5
Data set [11] deals with peptide-pulsed T2 cells. Briefly: IFN-gamma ELISPOT assay (positive wells). The following applies: HLA-A02 peptides; as compared to the control. The method in brief: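 CD8+ T cells from HLA-A*2402 and/or HLA-A*0201 donors were stimulated 1:20 with autologous monocyte-derived DCs pulsed with 20 µg/ml peptide plus β2-microglobulin, in IL-7, with IL-2 added, restimulated on days 7 and 14. On day 21, IFN-γ ELISPOT against peptide-pulsed T2 or A24-LCL cells (1×10^4/well) scored wells as positive, with CTL lines confirmed by ELISA.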

Data set [12] concerns peptide-pulsed T2 cells. Kind of data set: CTL line establishment, IFN-gamma ELISA. The following applies: HLA-A02 peptides; vs target without peptide pulse. The method in brief:
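CTLs expanded with MMC-inactivated B-lymphoblastoid lines, 40 ng/ml anti-CD3 and IL-2 (120 IU/ml day 1, then 30 IU/ml on days 5, 8, 11). Peptide-pulsed T2 or A24-LCL stimulators (1×10^4/well) incubated with cultured wells or limiting-dilution clones as responders; IFN-gamma detected by ELISPOT (positive wells) and ELISA (established CTL lines).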

Data set [13] deals with COS7 transfected with full length HIG2 gene and HLA-A*0201. Kind of data set: Specific CTL activity against transfected target cells. As to conditions: CTL line raised by the peptide; vs control transfectants; listed as HIG2-A02-9-15. How it is done: as §1, §2
(§6) The established CTL line raised against these peptides were examined for their ability to recognize the target cells expressing HIG2 and HLA-A*0201. […] 293T or COS7 transfected with full length ECT2 but not HLA-A*0201 and 293T or COS7 transfected with HLA-A*0201 but not full length ECT2 (or replaced other gene e.g. FoxP3 or TTK) were prepared as controls.

The test system of data set [14] is TE5 cancer cell line. Kind of data set: 51Cr release cytotoxicity assay. The following applies: TE5 expressing only ECT2. How it is done:
as §3, §4, §5

In data set [15] the test system is TE6 cancer cell line. Briefly: 51Cr release cytotoxicity assay. The following applies: TE6 endogenously expressing ECT2 and HLA-A24; listed as ECT2-A24-9-515. As to the method:
as §3, §4, §5

In data set [16] the test system is 293T transfected with full length HIG2 gene and HLA-A*0201. Kind of data set: Specific CTL activity against transfected target cells. As to conditions: CTL line raised by the peptide; vs control transfectants; listed as HIG2-A02-9-8. How it is done:
as §1, §2, §6

“DFQDsVFNDL (DFQDSVFNDL; not fully specified; printed as DFQDsVFNDL) [SEQ ID NO: 101]”: the “IFN-gamma production by IFN-gamma ELISPOT assay” value (“IFN-gamma production” for short) in [1] was “potent IFN-gamma production”. In data set [2], the “Establishment of CTL line, specific CTL activity against the peptide-pulsed target determined by ELISA” value (shortened to “Establishment of CTL line”) is “CTL lines were established”. In data set [3] (listed as ECT2-A24-10-101), the “Specific CTL activity against COS7 transfected with both ECT2 and HLA-A24” value is listed as “highest specific CTL activity; also recorded: high specific CTL activity”.

Turning to “FILPvLGAVL (FILPVLGAVL; not fully specified; printed as FILPvLGAVL) [SEQ ID NO: 344]”, in [1], the “IFN-gamma production” value was “potent IFN-gamma production”. The “Establishment of CTL line” value in [2] is on record as “CTL lines were established”. Besides, the “CTL activities of CTL clones against the peptide-pulsed target” value (“CTL activities of CTL clones” for short) in data set [4] was “potent and specific CTL activities”. The “Specific CTL activity against COS7 transfected with both CDH3 and HLA-A24” value in data set [5] is given as “highest specific CTL activity; also recorded: high specific CTL activity”.

On to GLNPLTSYV [SEQ ID NO: 376, GLNPLTSYV], for which, in data set [6], the “Cytotoxic activity of CTL line against target cells pulsed with the peptide (Cr-release assay)” value is listed as “very potent specific cytotoxic activity”.

As to KLNTEIRDV [SEQ ID NO: 379, KLNTEIRDV], the “Cytotoxic activity of CTL line against target cells pulsed with the peptide (Cr-release assay)” value in data set [6] is “very potent specific cytotoxic activity”.

For LYLKLLPYV [SEQ ID NO: 395], the “Cytotoxic activity against Caki-1 (Cr-release assay)” value in data set [7] is reported as “did not show significant specific cytotoxic activity”. In data set [8] (INHBB-positive, compared to CAki-2, listed as INHBB-A24-9-180), the “Cytotoxic activity against MIAPaca2 (Cr-release assay)” value is “remarkably high cytotoxic effect; also recorded: high specific cytotoxic activity”.

As for “SEQ ID NO: 178: HLA-A*2402 binding 9-mer peptide derived from KIF20A (IFSIRILHL)”, in [1], the “IFN-gamma production” value was “potent IFN-gamma production”. Moreover, the “Establishment of CTL line” value in data set [2] is reported as “CTL lines were established”. For the same substance, in [9] (listed as KIF20A-A24-9-383), the “Specific CTL activity against COS7 transfected with both KIF20A and HLA-A24” value was “highest specific CTL activity; also recorded: high specific CTL activity”.

Consider “SEQ ID NO: 194: HLA-A*2402 binding 10-mer peptide derived from KIF20A (KVYLRVRPLL)”, for which the “IFN-gamma production” value in data set [1] was “potent IFN-gamma production”. Moreover, the “Establishment of CTL line” value in data set [2] is “CTL lines were established”. The “CTL activities of CTL clones” value in data set [4] is “potent and specific CTL activities”. Also, the “Specific CTL activity against COS7 transfected with both KIF20A and HLA-A24” value in data set [9] (listed as KIF20A-A24-10-66) is “highest specific CTL activity”.

With SFFEIYNELL [SEQ ID NO: 186], the “Cytotoxic activity against PK59 (Cr-release assay)” value in data set [10] is given as “did not show significant specific cytotoxic activity”. The “Cytotoxic activity against MIAPaca2 (Cr-release assay)” value in data set [8] (Miapaca2 expressing both KIF20A and HLA-A24, listed as KIF20A-A24-10-304) is “remarkably high cytotoxic effect; also recorded: very potent specific cytotoxic activity”.

Regarding “SYVEeEMPQI (SYVEEEMPQI; not fully specified; printed as SYVEeEMPQI) [SEQ ID NO: 100]”, the “IFN-gamma production” value in data set [1] was “potent IFN-gamma production”. Further, in data set [2], the “Establishment of CTL line” value is “CTL lines were established”. The “CTL activities of CTL clones” value in data set [4] was “potent and specific CTL activities”. Moreover, in data set [3] (listed as ECT2-A24-10-40), the “Specific CTL activity against COS7 transfected with both ECT2 and HLA-A24” value was “highest specific CTL activity; also recorded: high specific CTL activity”.

On to TLLSIFVRV [SEQ ID NO: 116], for which the “IFN-gamma production” value in [11] was “potent IFN-gamma production”. The “Establishment of CTL line” value in data set [12] is given as “CTL lines were established”. Besides, the “Specific CTL activity against COS7 transfected with both HIG2 and HLA-A02” value in data set [13] is “highest specific CTL activity; also recorded: high specific CTL activity”.

Consider TYPPFVNFF [SEQ ID NO: 80, TYPPFVNFF], for which, in [14], the “Cytotoxic activity against TE5 (Cr-release assay)” value is given as “did not demonstrate the cytotoxic activity”. In addition, the “Cytotoxic activity against TE6 (Cr-release assay)” value in [15] was “remarkably high cytotoxic effect; also recorded: very potent cytotoxic activity”.

In the case of YLLGVVLTL [SEQ ID NO: 114], in data set [11], the “IFN-gamma production” value is “potent IFN-gamma production”. Moreover, the “Establishment of CTL line” value in data set [12] is listed as “CTL lines were established”. Further, the “Specific CTL activity against 293T transfected with both HIG2 and HLA-A02” value in data set [16] is given as “highest specific CTL activity; also recorded: high specific CTL activity”.
